Bases are written 5' to 3'; sugars and linkages follow in the same order, as letters with counts (s phosphorothioate, o phosphodiester; PS: all linkages phosphorothioate). C may stand for cytosine or 5-methylcytosine; the collection does not tell. l = locked nucleic acid (LNA); d = 2'-deoxy (DNA)

The target of the data set is HIF1A. The data set can be described thus: HeLa, 100 nM transfected, 24 h, mean of 3. The following applies: ASO.
On to TTACTGCCTTCTT (sugars l2 d10 l1, PS), for which the caspase activation (% of PBS control) worked out at 158.

“TGGCAAGCATCCTGTA (sugars l3 d1 l1 d6 l5, PS)”: the caspase activation (% of PBS control) was 536. Next, “TGGCAAGCATCCTGTA (sugars l1 d2 l1 d11 l1, PS)”: 178; “ACTGCCTTCTTAC (sugars l1 d1 l2 d7 l2, PS)”: 217. On to “TGGCAAGCATCCTGTA (sugars ldlddddddddlldll, PS)”, for which the caspase activation (% of PBS control) came out at 227. Sequence “TGGCAAGCATCCTGTA (sugars l4 d7 l2 d1 l2, PS)” had a caspase activation (% of PBS control) of 572. On to “TGGCAAGCATCCTGTA (sugars ldlldddddddldlll, PS)”, for which the caspase activation (% of PBS control) came out at 435. The same measure for “TGGCAAGCATCCTGTA (sugars ldddlddddddldddl, PS)”: 159; for “TGGCAAGCATCCT (sugars l1 d1 l1 d9 l1, PS)”: 160. Next, “GTTACTGCCTTCTTAC (sugars l1 d11 l2 d1 l1, PS)”: 137. Take “TGGCAAGCATCCTGTA (sugars ldllldddddddldll, PS)”: the caspase activation (% of PBS control) was determined as 459.

“TGGCAAGCATCCT (sugars l1 d9 l1 d1 l1, PS)” came in with a caspase activation (% of PBS control) of 242. The same measure for “TGGCAAGCATCCTGTA (sugars lldlldddddddlldl, PS)”: 362; for “GTTACTGCCTTCTTAC (sugars ldddldddddddldll, PS)”: 135; for GTTACTGCCTTCTTAC (sugars l4 d8 l4, PS): 272. TGGCAAGCATCCTGTA (sugars l1 d12 l3, PS) had a caspase activation (% of PBS control) of 217.

Sequence “GTTACTGCCTTCTTAC (sugars ldllldddddddlldl, PS)” showed a caspase activation (% of PBS control) of 470. Next, ACTGCCTTCTTAC (sugars l4 d7 l2, PS): 406. Sequence “ACTGCCTTCTTAC (sugars l2 d8 l1 d1 l1, PS)” returned a caspase activation (% of PBS control) of 199. The same measure for “GTTACTGCCTTCTTAC (sugars lddllddddddlldll, PS)”: 196; for “TGGCAAGCATCCTGTA (sugars l5 d6 l1 d1 l3, PS)”: 443.

For the sequence “TGGCAAGCATCCT (sugars lddlddddddldl, PS)”, the caspase activation (% of PBS control) amounted to 132.

As for GTTACTGCCTTCTTAC (sugars l5 d7 l4, PS), the caspase activation (% of PBS control) amounted to 574. In turn, TGGCAAGCATCCTGTA (sugars l4 d8 l4, PS) showed a caspase activation (% of PBS control) of 349. In turn, TACTGCCTTCTTA (sugars l3 d9 l1, PS) registered a caspase activation (% of PBS control) of 286. Next, “TTACTGCCTTCTT (sugars l1 d1 l2 d8 l1, PS)”: 153; “TGGCAAGCATCCTGTA (sugars ldddldddddddldll, PS)”: 245. Next, “GTTACTGCCTTCTTAC (sugars l1 d3 l1 d8 l3, PS)”: 174; “TGGCAAGCATCCTGTA (sugars lldlldddddddldll, PS)”: 454; “GTTACTGCCTTCTTAC (sugars ldldlddddddlddll, PS)”: 220. With “GTTACTGCCTTCTTAC (sugars ldddldddddddlddl, PS)”, the caspase activation (% of PBS control) turned out to be 142. “GTTACTGCCTTCTTAC (sugars l1 d10 l2 d2 l1, PS)” showed a caspase activation (% of PBS control) of 134. Next, “GTTACTGCCTTCTTAC (sugars ldldlddddddllldl, PS)”: 354; “TGGCAAGCATCCTGTA (sugars l1 d11 l1 d1 l2, PS)”: 315; “GTTACTGCCTTCTTAC (sugars lldlddddddddlddl, PS)”: 135. Sequence “GTTACTGCCTTCTTAC (sugars l1 d1 l3 d10 l1, PS)” returned a caspase activation (% of PBS control) of 323. “TTACTGCCTTCTT (sugars l2 d8 l1 d1 l1, PS)” registered a caspase activation (% of PBS control) of 198. “TGGCAAGCATCCTGTA (sugars l1 d3 l1 d6 l5, PS)” had a caspase activation (% of PBS control) of 396. The same measure for “TGGCAAGCATCCTGTA (sugars l2 d9 l1 d2 l2, PS)”: 424. Turning to GTTACTGCCTTCTTAC (sugars l4 d9 l3, PS), the caspase activation (% of PBS control) came out at 160.

Sequence “TGGCAAGCATCCTGTA (sugars l3 d8 l2 d2 l1, PS)” gave a caspase activation (% of PBS control) of 221. Consider “CAAGCATCCTGTA (sugars lddlddddddldl, PS)”, for which the caspase activation (% of PBS control) is 100.

With “TGGCAAGCATCCTGTA (sugars l1 d2 l1 d9 l3, PS)”, the caspase activation (% of PBS control) stood at 254. Take “TGGCAAGCATCCTGTA (sugars l2 d1 l2 d7 l4, PS)”: the caspase activation (% of PBS control) is 394. The same measure for “TGGCAAGCATCCTGTA (sugars lddldddddddllldl, PS)”: 394; for “GTTACTGCCTTCTTAC (sugars l5 d6 l1 d1 l3, PS)”: 441; for “GTTACTGCCTTCTTAC (sugars l2 d1 l1 d9 l3, PS)”: 130. The same measure for GTTACTGCCTTCT (sugars l1 d10 l2, PS): 127; for GTTACTGCCTTCTTAC (sugars l1 d14 l1, PS): 102.

With “TTACTGCCTTCTT (sugars ldllddddddldl, PS)”, the caspase activation (% of PBS control) amounted to 181. In turn, “TGGCAAGCATCCTGTA (sugars lldllddddddldldl, PS)” registered a caspase activation (% of PBS control) of 483. In the case of “ACTGCCTTCTTAC (sugars l1 d1 l1 d9 l1, PS)”, the caspase activation (% of PBS control) came to 188. In turn, “TGGCAAGCATCCTGTA (sugars l1 d1 l2 d10 l2, PS)” showed a caspase activation (% of PBS control) of 342.

Turning to “TGGCAAGCATCCT (sugars l3 d7 l1 d1 l1, PS)”, the caspase activation (% of PBS control) was 268. “GTTACTGCCTTCTTAC (sugars lddllddddddddldl, PS)”: the caspase activation (% of PBS control) was 246. With “GGCAAGCATCCTG (sugars lddlddddddldl, PS)”, the caspase activation (% of PBS control) was 198. Next, GTTACTGCCTTCTTAC (sugars l3 d8 l5, PS): 379; TTACTGCCTTCTT (sugars l4 d8 l1, PS): 202. In the case of “GGCAAGCATCCTG (sugars ldldddddddldl, PS)”, the caspase activation (% of PBS control) was found to be 344. Next, TGGCAAGCATCCTGTA (sugars l5 d8 l3, PS): 360; “GTTACTGCCTTCTTAC (sugars lddldddddddllldl, PS)”: 227.

In turn, “GGCAAGCATCCTG (sugars l1 d1 l1 d9 l1, PS)” had a caspase activation (% of PBS control) of 339. For “TGGCAAGCATCCTGTA (sugars lddlddddddddlldl, PS)”, the caspase activation (% of PBS control) amounted to 392. GTTACTGCCTTCTTAC (sugars l1 d13 l2, PS): the caspase activation (% of PBS control) amounted to 87.3. The same measure for “GTTACTGCCTTCTTAC (sugars l1 d1 l2 d10 l2, PS)”: 130; for “ACTGCCTTCTTAC (sugars l4 d6 l1 d1 l1, PS)”: 393.

Take “GTTACTGCCTTCTTAC (sugars lddllddddddldldl, PS)”: the caspase activation (% of PBS control) was determined as 207. In turn, “GTTACTGCCTTCTTAC (sugars lldlldddddddlldl, PS)” displayed a caspase activation (% of PBS control) of 363. Next, “GTTACTGCCTTCTTAC (sugars l1 d10 l2 d1 l2, PS)”: 136; “TGGCAAGCATCCTGTA (sugars ldddlddddddldldl, PS)”: 213. As to “GTTACTGCCTTCTTAC (sugars l1 d1 l1 d10 l3, PS)”, the caspase activation (% of PBS control) amounted to 109.

The sequence “GCAAGCATCCTGT (sugars l1 d1 l1 d8 l2, PS)” registered a caspase activation (% of PBS control) of 188. On to “TGGCAAGCATCCTGTA (sugars l2 d1 l1 d10 l2, PS)”, for which the caspase activation (% of PBS control) was determined as 501.

GTTACTGCCTTCTTAC (sugars l1 d12 l3, PS) had a caspase activation (% of PBS control) of 100. With “CAAGCATCCTGTA (sugars l1 d2 l1 d7 l2, PS)”, the caspase activation (% of PBS control) is 107. “TGGCAAGCATCCTGTA (sugars l1 d2 l2 d8 l3, PS)” came in with a caspase activation (% of PBS control) of 419. The same measure for “TGGCAAGCATCCTGTA (sugars l2 d1 l2 d10 l1, PS)”: 401. The same measure for “TTACTGCCTTCTT (sugars l1 d1 l1 d7 l3, PS)”: 183. Take “GTTACTGCCTTCTTAC (sugars ldldlddddddddddl, PS)”: the caspase activation (% of PBS control) amounted to 175. “CAAGCATCCTGTA (sugars l3 d7 l1 d1 l1, PS)” showed a caspase activation (% of PBS control) of 302.

In the case of “TGGCAAGCATCCT (sugars l1 d2 l1 d8 l1, PS)”, the caspase activation (% of PBS control) came out at 178.

As for “TGGCAAGCATCCTGTA (sugars ldldldddddddldll, PS)”, the caspase activation (% of PBS control) was determined as 290. In turn, “GTTACTGCCTTCTTAC (sugars l1 d2 l2 d7 l4, PS)” showed a caspase activation (% of PBS control) of 361. In turn, “GTTACTGCCTTCTTAC (sugars ldldldddddddlddl, PS)” returned a caspase activation (% of PBS control) of 220. Sequence “TGGCAAGCATCCTGTA (sugars ldllldddddddlldl, PS)” yielded a caspase activation (% of PBS control) of 440. Consider TTACTGCCTTCTT (sugars l3 d7 l3, PS), for which the caspase activation (% of PBS control) is 291. For the sequence “GTTACTGCCTTCTTAC (sugars lddlldddddddlldl, PS)”, the caspase activation (% of PBS control) was 374. The same measure for “TGGCAAGCATCCTGTA (sugars l1 d2 l1 d8 l4, PS)”: 398. For “TGGCAAGCATCCTGTA (sugars lldlddddddddldll, PS)”, the caspase activation (% of PBS control) came out at 502.
